Measurements from patent publication US20220146492A1, “CELL MEMBRANE PERMEABILITY RESTORING THERAPY” (priority 2019, published 2022).

System: RBCs
Experiment: Cell scan of RBC membrane permeability (Pk0) after contacting whole blood from a healthy volunteer with an agent
Assay type: cell-based, human
Details: for Induction of water permeability resistance (decreased RBC membrane permeability to water): agents at concentrations consistent with in vivo concentration; for Pk0 (mOsm/kg): whole blood in ACD, healthy volunteer, measured after exposure (method: five minutes), lactose 1:20 (v/v) saturated lactose solution, amphotericin B 0.5 μg/mL
Experimental: A sample of whole blood from a healthy volunteer was drawn into ACD anticoagulant. The unwashed sample was divided into aliquots and was analyzed using the Prior Shine Technology and/or the Provided Cell Scanning Technologies. The following outputs were obtained from the sample:
Using the technologies described herein, a cell-by-cell analysis was converted into a plot of percent change of cell volume vs. osmolality (“Cell Scan Plot”) by converting the individual peak voltage into a cell volume, then calculating a mean volume for an aliquot of cells, and plotting the means to generate the Cell Scan Plot. The percentage change of cell volume at each osmolality is calculated and compared to the mean cell volume of an isotonic cell (e.g., FIG. 1b). On such a plot, Pk0 (see 101) is the osmotic pressure at which the net water flow is zero (i.e., when a cell achieved its maximum volume, i.e., when it is a perfect sphere). As described herein, in some embodiments, Pk0 can be used as an indicator of an individual's health status.
A sample of whole blood from a healthy volunteer was drawn into ACD anticoagulant. Blood samples were divided into aliquots, and each sample was contacted with an agent at concentrations consistent with the agent's in vivo concentration. Agents that were tested included alcohols, alpha fetoproteins, amphotericin B, bovine albumen, carcinoembryonic antigen (CEA), concanavalin A (Con A), fetuin, fibronectin, 5-HT, kallikrein, ovomucoid, prostacyclin, prostaglandin, semen, transferrin, and several sugars, including N-acetyl-D-glucosamine, N-acetyl neurominic acid, 2-deoxy-D-ribose, fructose, D- and L-arabinose, beta-D-galactopyranoside, erythrose, D- and L-fucose, D- and L-glucose, D-galactose, lactose, maltose, iso-maltose, D-mannose, mannitol, L-rhamnose, ribose, sucrose, and D-xylose. Five minutes after exposure to an agent, the blood sample was evaluated for cell membrane permeability and Pk0 was measured. […] Lactose ([…]) lowered Pk0 to 110 mOsm/kg.
A sample of whole blood from a healthy volunteer was drawn into ACD anticoagulant. The sample was then treated with 5-HT (900 ng/mL), and cell membrane permeability was evaluated 5 minutes after treatment.

Row | Compound | Pk0 lowered to (after 10 minutes) [mOsm/kg] | Induction of water permeability resistance (decreased RBC membrane permeability to water) | Pk0 (mOsm/kg) (5-HT 900 ng/mL) | Pk0 after treatment with 5-HT (5-HT 900 ng/mL, 5 minutes after treatment, normal Pk0 before approx. 140 mOsm/kg (FIG. 8)) | Pk0 shift after contacting with 5-HT (FIG. 8, RBCs from normal healthy individual, before vs after 5-HT)
1 | OC[C@H]1O[C@@H](O[C@H]2[C@H](O)[C@@H](O)C(O)O[C@@H]2CO)[C@H](O)[C@@H](O)[C@H]1O (stereo partly drawn) [Lactose] | 110 | identified as RBC membrane permeability decreasing agents | 110 | – | –
2 | C[C@@H]1[C@H](O)[C@@H](C)/C=C/C=C/C=C/C=C/C=C/C=C/C=C/[C@H](O[C@@H]2O[C@H](C)[C@@H](O)[C@H](N)[C@@H]2O)C[C@@H]2O[C@](O)(C[C@@H](O)C[C@@H](O)[C@H](O)CC[C@@H](O)C[C@@H](O)CC(=O)O[C@H]1C)C[C@H](O)[C@H]2C(=O)O [Amphotericin B] | – | identified as RBC membrane permeability decreasing agents | 85 | – | –
3 | NCCc1c[nH]c2ccc(O)cc12 [Agent 5-HT, 5-hydroxytryptamine] | – | effective within minutes | 110 | approx. 110 mOsm/kg | approx. 30 mOsm/kg
